Assay results taken from PubChem BioAssay (NCI).
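Cultured in 96-well plates, cells were exposed to test compound for 48 hours across five concentrations. GI50 = concentration required for 50% inhibition of growth. TGI denotes the concentration required for complete inhibition of growth.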

Tests used:
Assay in all cases: inhibition of tumour cell growth, NCI panel, 48 h
A498 renal = tested on: A498 renal
786-0 renal = tested on: 786-0 renal
HL-60(TB) leukemia = tested on: HL-60(TB) leukemia
LOX IMVI melanoma = tested on: LOX IMVI melanoma
HS 578T breast = tested on: HS 578T breast
SW-620 colon = tested on: SW-620 colon
BT-549 breast = tested on: BT-549 breast
MALME-3M melanoma = tested on: MALME-3M melanoma
ACHN renal = tested on: ACHN renal
K-562 leukemia = tested on: K-562 leukemia
NCI-H23 lung = tested on: NCI-H23 lung
OVCAR-3 ovarian = tested on: OVCAR-3 ovarian
UACC-62 melanoma = tested on: UACC-62 melanoma
M14 melanoma = tested on: M14 melanoma
U251 CNS = tested on: U251 CNS
SK-MEL-28 melanoma = tested on: SK-MEL-28 melanoma
A549 NSCLC = tested on: A549 NSCLC
HOP-62 NSCLC = tested on: HOP-62 NSCLC
SF-539 CNS = tested on: SF-539 CNS
OVCAR-5 ovarian = tested on: OVCAR-5 ovarian
CAKI-1 renal = tested on: CAKI-1 renal
HCT-15 colon = tested on: HCT-15 colon
NCI-H460 lung = tested on: NCI-H460 lung
UACC-257 melanoma = tested on: UACC-257 melanoma
MOLT-4 leukemia = tested on: MOLT-4 leukemia
HCT-116 colon = tested on: HCT-116 colon
NCI-H522 lung = tested on: NCI-H522 lung
HT29 colon = tested on: HT29 colon
SK-OV-3 ovarian = tested on: SK-OV-3 ovarian
COLO 205 colon = tested on: COLO 205 colon
TK-10 renal = tested on: TK-10 renal
SR leukemia = tested on: SR leukemia
NCI-H226 lung = tested on: NCI-H226 lung
NCI/ADR-RES ovarian = tested on: NCI/ADR-RES ovarian
MCF7 breast = tested on: MCF7 breast
OVCAR-8 ovarian = tested on: OVCAR-8 ovarian
IGROV1 ovarian = tested on: IGROV1 ovarian
RXF 393 renal = tested on: RXF 393 renal
SNB-75 CNS = tested on: SNB-75 CNS
HCC-2998 colon = tested on: HCC-2998 colon
CCRF-CEM leukemia = tested on: CCRF-CEM leukemia
MDA-MB-435 = tested on: MDA-MB-435
T-47D breast = tested on: T-47D breast
SK-MEL-5 melanoma = tested on: SK-MEL-5 melanoma
SNB-19 CNS = tested on: SNB-19 CNS
SK-MEL-2 melanoma = tested on: SK-MEL-2 melanoma
PC-3 prostate = tested on: PC-3 prostate
RPMI-8226 leukemia = tested on: RPMI-8226 leukemia
UO-31 renal = tested on: UO-31 renal
MDA-MB-231 breast = tested on: MDA-MB-231 breast
KM12 colon = tested on: KM12 colon
SF-268 CNS = tested on: SF-268 CNS
HOP-92 NSCLC = tested on: HOP-92 NSCLC
SN12C renal = tested on: SN12C renal
DU-145 prostate = tested on: DU-145 prostate
EKVX NSCLC = tested on: EKVX NSCLC

CC(C)Nc1ccc(Nc2ccccc2)cc1
GI50 (A498 renal): 9.69 µM
TGI (A498 renal): > 100 µM
GI50 (786-0 renal): 17.8 µM
TGI (786-0 renal): > 100 µM
GI50 (HL-60(TB) leukemia): 17.7 µM
TGI (HL-60(TB) leukemia): 51.3 µM
GI50 (LOX IMVI melanoma): 13.1 µM
TGI (LOX IMVI melanoma): 29.1 µM
GI50 (HS 578T breast): 38.3 µM
TGI (HS 578T breast): > 100 µM
GI50 (SW-620 colon): 15.8 µM
TGI (SW-620 colon): 45.8 µM
GI50 (BT-549 breast): 11.3 µM
TGI (BT-549 breast): 33.9 µM
GI50 (MALME-3M melanoma): 14.9 µM
TGI (MALME-3M melanoma): 43.2 µM
GI50 (ACHN renal): 3.31 µM
TGI (ACHN renal): 15 µM
GI50 (K-562 leukemia): 15.6 µM
TGI (K-562 leukemia): 52.5 µM
GI50 (NCI-H23 lung): 14.2 µM
TGI (NCI-H23 lung): 65.3 µM
GI50 (OVCAR-3 ovarian): 9.49 µM
TGI (OVCAR-3 ovarian): 21.8 µM
GI50 (UACC-62 melanoma): 11.6 µM
TGI (UACC-62 melanoma): 51.6 µM
GI50 (M14 melanoma): 14.9 µM
TGI (M14 melanoma): 33 µM
GI50 (U251 CNS): 12.8 µM
TGI (U251 CNS): 32 µM
GI50 (SK-MEL-28 melanoma): 28.1 µM
TGI (SK-MEL-28 melanoma): 95.1 µM
GI50 (A549 NSCLC): 26.2 µM
TGI (A549 NSCLC): > 100 µM
GI50 (HOP-62 NSCLC): 23.6 µM
TGI (HOP-62 NSCLC): 66.9 µM
GI50 (SF-539 CNS): 5.34 µM
TGI (SF-539 CNS): 38.6 µM
GI50 (OVCAR-5 ovarian): 24.6 µM
TGI (OVCAR-5 ovarian): 57.1 µM
GI50 (CAKI-1 renal): 4.06 µM
TGI (CAKI-1 renal): 17.4 µM
GI50 (HCT-15 colon): 21.5 µM
TGI (HCT-15 colon): 77 µM
GI50 (NCI-H460 lung): 18.9 µM
TGI (NCI-H460 lung): > 100 µM
GI50 (UACC-257 melanoma): 15.6 µM
TGI (UACC-257 melanoma): 31.5 µM
GI50 (MOLT-4 leukemia): 21.2 µM
TGI (MOLT-4 leukemia): > 100 µM
GI50 (HCT-116 colon): 14.1 µM
TGI (HCT-116 colon): 31.4 µM
GI50 (NCI-H522 lung): 13.7 µM
TGI (NCI-H522 lung): 28.8 µM
GI50 (HT29 colon): 17 µM
TGI (HT29 colon): 48.4 µM
GI50 (SK-OV-3 ovarian): 39.9 µM
TGI (SK-OV-3 ovarian): > 100 µM
GI50 (COLO 205 colon): 14.3 µM
TGI (COLO 205 colon): 31.3 µM
GI50 (TK-10 renal): 23.1 µM
TGI (TK-10 renal): 57.4 µM
GI50 (SR leukemia): 15.7 µM
TGI (SR leukemia): 49.3 µM
GI50 (NCI-H226 lung): 19.9 µM
TGI (NCI-H226 lung): 69.3 µM
GI50 (NCI/ADR-RES ovarian): 9.8 µM
TGI (NCI/ADR-RES ovarian): 65.3 µM
GI50 (MCF7 breast): 11.1 µM
TGI (MCF7 breast): 31.9 µM
GI50 (OVCAR-8 ovarian): 11.6 µM
TGI (OVCAR-8 ovarian): 26.5 µM
GI50 (IGROV1 ovarian): 14.2 µM
TGI (IGROV1 ovarian): 37.3 µM
GI50 (RXF 393 renal): 8.81 µM
TGI (RXF 393 renal): 24.6 µM
GI50 (SNB-75 CNS): 21.5 µM
TGI (SNB-75 CNS): > 100 µM
GI50 (HCC-2998 colon): 25.3 µM
TGI (HCC-2998 colon): > 100 µM
GI50 (CCRF-CEM leukemia): 12.5 µM
TGI (CCRF-CEM leukemia): > 100 µM
GI50 (MDA-MB-435): 15.4 µM
TGI (MDA-MB-435): 46 µM
GI50 (T-47D breast): 15.5 µM
TGI (T-47D breast): 38.8 µM
GI50 (SK-MEL-5 melanoma): 11.4 µM
TGI (SK-MEL-5 melanoma): 24.9 µM
GI50 (SNB-19 CNS): 25.5 µM
TGI (SNB-19 CNS): > 100 µM
GI50 (SK-MEL-2 melanoma): 25.6 µM
TGI (SK-MEL-2 melanoma): 66.3 µM
GI50 (PC-3 prostate): 9.2 µM
TGI (PC-3 prostate): 31.3 µM
GI50 (RPMI-8226 leukemia): 3.68 µM
TGI (RPMI-8226 leukemia): 19.5 µM
GI50 (UO-31 renal): 14.1 µM
TGI (UO-31 renal): 64.9 µM
GI50 (MDA-MB-231 breast): 8.32 µM
TGI (MDA-MB-231 breast): 35.6 µM
GI50 (KM12 colon): 22.4 µM
TGI (KM12 colon): > 100 µM
GI50 (SF-268 CNS): 17 µM
TGI (SF-268 CNS): 50.4 µM
GI50 (HOP-92 NSCLC): 12 µM
TGI (HOP-92 NSCLC): 30 µM
GI50 (SN12C renal): 27.1 µM
TGI (SN12C renal): > 100 µM
GI50 (DU-145 prostate): 26.2 µM
TGI (DU-145 prostate): > 100 µM
GI50 (EKVX NSCLC): 12.8 µM
TGI (EKVX NSCLC): 44.7 µM
